Measurements published in paper PMC7206119, “RIP1 inhibition blocks inflammatory diseases but not tumor growth or metastases” (Cell Death and Differentiation, 2019).

Columns and labels:
Assay in all cases: biochemical
Parameters in all cases: Thermo Fisher SelectScreen kinase panel: Z'-LYTE and Adapta activity, LanthaScreen binding
CK1_alpha1 = biological target: T1, CK1_alpha1 (Homo sapiens, UniProt P48729)
T1 construct: gene CSNK1A1
Description: (§1) 5 88 GNE684 was tested in Thermo Fisher Scientific SelectScreen assay (Madison, WI) 89 against 221 representative kinases at a concentration of 10 µM, which is 476-fold greater than the Ki app 90 for GNE684 against human RIP1 in the RIP1 enzyme 91 assay. The kinase assays were carried out using Z'-LYTE and Adapta activity and 92 LanthaScreen binding assays (Thermo Fisher Scientific, Madison WI) following 93 protocols developed and performed by Thermo Fisher Scientific 94 (https://www.thermofisher.com/us/en/home/products-and-services/services/custom-95 services/screening-and-profiling-services/selectscreen-profiling-service/selectscreen-96 kinase-profiling-service.html). 97 GNE684 was also tested against 468 kinases in the KINOMEscan scanMAX kinase 98 binding assay panel at a concentration of 10 µM following protocols developed and 99 performed by DiscoverX (http://www.discoverx.com/kinase_profiling).

IKK-alpha = biological target: T2, IKK-alpha (Homo sapiens, UniProt O15111)
T2 construct: gene CHUK
Description: as §1

LIMK1 = LIMK1 (Homo sapiens, UniProt P53667)
Description: as §1

MST2 = biological target: T3, MST2 (Homo sapiens, UniProt Q13188)
T3 construct: gene STK3
Description: as §1

AKT2 = AKT2 (Homo sapiens, UniProt P31751)
Description: as §1

HCK = HCK (Homo sapiens, UniProt P08631)
Description: as §1

WNK2 = WNK2 (Homo sapiens, UniProt Q9Y3S1)
Chain of WNK2 (Q9Y3S1 whole entry): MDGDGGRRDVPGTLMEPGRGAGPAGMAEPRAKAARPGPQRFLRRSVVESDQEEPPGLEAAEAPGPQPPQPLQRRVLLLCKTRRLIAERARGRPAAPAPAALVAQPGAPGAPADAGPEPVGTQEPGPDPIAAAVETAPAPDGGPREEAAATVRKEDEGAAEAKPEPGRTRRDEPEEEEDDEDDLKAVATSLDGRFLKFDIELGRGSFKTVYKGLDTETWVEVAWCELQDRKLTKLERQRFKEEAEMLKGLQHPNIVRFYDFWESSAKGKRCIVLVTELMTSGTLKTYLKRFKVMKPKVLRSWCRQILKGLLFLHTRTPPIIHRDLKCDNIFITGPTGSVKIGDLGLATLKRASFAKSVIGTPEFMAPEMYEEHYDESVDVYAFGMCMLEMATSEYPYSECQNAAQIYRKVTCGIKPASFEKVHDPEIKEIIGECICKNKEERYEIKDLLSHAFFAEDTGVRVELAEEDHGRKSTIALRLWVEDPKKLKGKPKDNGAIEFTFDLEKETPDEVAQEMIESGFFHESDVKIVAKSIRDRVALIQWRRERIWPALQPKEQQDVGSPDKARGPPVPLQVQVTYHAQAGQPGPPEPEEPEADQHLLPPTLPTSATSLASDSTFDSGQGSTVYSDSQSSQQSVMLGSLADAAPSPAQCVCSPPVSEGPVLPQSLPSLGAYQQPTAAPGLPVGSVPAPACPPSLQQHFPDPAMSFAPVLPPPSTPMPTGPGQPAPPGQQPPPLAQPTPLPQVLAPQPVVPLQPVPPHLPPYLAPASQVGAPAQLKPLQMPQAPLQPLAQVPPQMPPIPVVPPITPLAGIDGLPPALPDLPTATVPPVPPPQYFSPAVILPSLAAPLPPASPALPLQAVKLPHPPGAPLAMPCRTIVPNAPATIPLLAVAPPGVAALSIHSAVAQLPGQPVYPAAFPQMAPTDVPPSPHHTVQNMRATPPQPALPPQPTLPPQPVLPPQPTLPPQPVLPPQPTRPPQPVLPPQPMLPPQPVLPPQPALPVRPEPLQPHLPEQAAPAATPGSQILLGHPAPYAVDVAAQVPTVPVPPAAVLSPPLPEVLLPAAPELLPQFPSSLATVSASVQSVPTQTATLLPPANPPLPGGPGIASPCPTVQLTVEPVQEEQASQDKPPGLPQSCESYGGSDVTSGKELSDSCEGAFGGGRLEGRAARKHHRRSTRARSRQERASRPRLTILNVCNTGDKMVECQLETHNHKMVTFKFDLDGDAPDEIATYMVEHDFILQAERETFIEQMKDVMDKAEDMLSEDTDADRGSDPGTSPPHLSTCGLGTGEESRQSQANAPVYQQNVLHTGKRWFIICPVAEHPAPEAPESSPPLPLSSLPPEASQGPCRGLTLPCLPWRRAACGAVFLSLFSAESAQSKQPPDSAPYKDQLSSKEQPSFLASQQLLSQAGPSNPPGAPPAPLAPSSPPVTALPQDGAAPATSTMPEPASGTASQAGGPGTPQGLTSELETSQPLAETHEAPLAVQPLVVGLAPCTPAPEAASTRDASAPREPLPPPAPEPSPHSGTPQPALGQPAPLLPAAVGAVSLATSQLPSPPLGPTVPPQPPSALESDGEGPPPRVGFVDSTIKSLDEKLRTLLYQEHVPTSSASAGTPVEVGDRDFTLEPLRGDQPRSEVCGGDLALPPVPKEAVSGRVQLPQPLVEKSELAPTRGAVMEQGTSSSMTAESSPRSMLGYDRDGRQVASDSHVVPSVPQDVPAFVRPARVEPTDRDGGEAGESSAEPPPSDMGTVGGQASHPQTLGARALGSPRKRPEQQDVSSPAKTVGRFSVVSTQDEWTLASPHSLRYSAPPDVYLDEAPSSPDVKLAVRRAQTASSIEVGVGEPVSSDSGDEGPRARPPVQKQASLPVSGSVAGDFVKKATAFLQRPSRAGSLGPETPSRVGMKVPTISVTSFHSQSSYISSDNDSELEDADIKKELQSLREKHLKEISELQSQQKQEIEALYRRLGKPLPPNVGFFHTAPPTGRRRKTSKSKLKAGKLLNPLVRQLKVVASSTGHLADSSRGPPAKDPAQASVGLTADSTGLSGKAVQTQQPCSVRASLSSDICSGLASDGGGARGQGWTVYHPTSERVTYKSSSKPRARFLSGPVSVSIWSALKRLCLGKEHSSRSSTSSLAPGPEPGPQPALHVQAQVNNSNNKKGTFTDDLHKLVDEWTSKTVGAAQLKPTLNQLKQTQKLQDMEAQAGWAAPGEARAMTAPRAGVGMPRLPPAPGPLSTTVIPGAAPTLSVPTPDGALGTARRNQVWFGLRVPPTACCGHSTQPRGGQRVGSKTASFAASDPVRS
Description: as §1

eEF-2K = biological target: T4, eEF-2K (Homo sapiens, UniProt O00418)
T4 construct: gene EEF2K
T4 sequence (O00418 whole entry): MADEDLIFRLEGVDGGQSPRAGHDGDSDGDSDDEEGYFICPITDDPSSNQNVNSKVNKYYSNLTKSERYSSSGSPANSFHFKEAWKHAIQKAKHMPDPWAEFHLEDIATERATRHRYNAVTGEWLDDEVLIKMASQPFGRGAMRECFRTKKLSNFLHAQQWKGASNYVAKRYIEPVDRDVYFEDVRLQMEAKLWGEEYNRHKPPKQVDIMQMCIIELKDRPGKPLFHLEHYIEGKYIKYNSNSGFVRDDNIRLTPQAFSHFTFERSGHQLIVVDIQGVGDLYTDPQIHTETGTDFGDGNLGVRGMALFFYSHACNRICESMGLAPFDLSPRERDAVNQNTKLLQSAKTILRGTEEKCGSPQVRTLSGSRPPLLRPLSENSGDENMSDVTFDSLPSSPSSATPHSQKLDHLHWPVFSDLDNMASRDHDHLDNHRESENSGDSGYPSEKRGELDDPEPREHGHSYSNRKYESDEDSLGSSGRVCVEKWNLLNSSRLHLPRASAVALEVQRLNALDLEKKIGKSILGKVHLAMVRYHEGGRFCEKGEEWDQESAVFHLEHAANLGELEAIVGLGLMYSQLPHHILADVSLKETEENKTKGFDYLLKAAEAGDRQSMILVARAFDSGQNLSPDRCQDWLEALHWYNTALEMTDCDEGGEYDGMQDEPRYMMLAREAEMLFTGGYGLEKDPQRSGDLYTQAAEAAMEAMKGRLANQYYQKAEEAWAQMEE
Description: as §1

CDK2/cyclinA = CDK2/cyclinA (Homo sapiens, UniProt P24941)
Description: as §1

SRC = SRC (Homo sapiens, UniProt P12931)
Description: as §1

DCAMKL2 = biological target: T5, DCAMKL2 (Homo sapiens, UniProt Q8N568)
T5 construct: gene DCLK2
T5 sequence (Q8N568 whole entry): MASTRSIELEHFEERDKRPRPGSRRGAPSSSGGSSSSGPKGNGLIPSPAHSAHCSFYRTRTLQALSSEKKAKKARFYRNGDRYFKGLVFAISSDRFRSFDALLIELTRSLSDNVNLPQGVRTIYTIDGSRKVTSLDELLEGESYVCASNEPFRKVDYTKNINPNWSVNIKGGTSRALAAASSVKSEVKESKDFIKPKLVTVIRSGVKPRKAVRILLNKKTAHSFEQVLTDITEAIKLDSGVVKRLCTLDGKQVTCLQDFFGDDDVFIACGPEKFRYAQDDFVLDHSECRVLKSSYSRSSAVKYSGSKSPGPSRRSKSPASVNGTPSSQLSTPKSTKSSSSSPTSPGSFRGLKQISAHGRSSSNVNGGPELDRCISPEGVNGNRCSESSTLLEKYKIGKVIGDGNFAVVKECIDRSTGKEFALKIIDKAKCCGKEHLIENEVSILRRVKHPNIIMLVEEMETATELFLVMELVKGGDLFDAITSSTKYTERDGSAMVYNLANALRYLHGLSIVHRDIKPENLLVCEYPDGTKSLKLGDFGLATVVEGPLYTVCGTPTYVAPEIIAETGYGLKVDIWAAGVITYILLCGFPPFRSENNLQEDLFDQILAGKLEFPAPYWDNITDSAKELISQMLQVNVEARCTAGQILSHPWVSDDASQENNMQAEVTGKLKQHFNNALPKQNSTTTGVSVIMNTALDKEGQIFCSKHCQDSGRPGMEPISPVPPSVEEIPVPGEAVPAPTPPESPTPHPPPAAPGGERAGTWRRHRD
Description: as §1

PRK1 = biological target: T6, PRK1 (Homo sapiens, UniProt Q16512)
T6 construct: gene PKN1
Description: as §1

ROCK1 = ROCK1 (Homo sapiens, UniProt Q13464)
Description: as §1

PKC_alpha = biological target: T7, PKC_alpha (Homo sapiens, UniProt P17252)
T7 construct: gene PRKCA
Description: as §1

TRKB = biological target: T8, TRKB (Homo sapiens, UniProt Q16620)
T8 construct: gene NTRK2
Description: as §1

PRAK = biological target: T9, PRAK (Homo sapiens, UniProt Q8IW41)
T9 construct: gene MAPKAPK5
Description: as §1

IRAK1 = IRAK1 (Homo sapiens, UniProt P51617)
Description: as §1

HIPK4 = HIPK4 (Homo sapiens, UniProt Q8NE63)
Description: as §1

JNK2 = biological target: T10, JNK2 (Homo sapiens, UniProt P45984)
T10 construct: gene MAPK9
T10 sequence (P45984 whole entry): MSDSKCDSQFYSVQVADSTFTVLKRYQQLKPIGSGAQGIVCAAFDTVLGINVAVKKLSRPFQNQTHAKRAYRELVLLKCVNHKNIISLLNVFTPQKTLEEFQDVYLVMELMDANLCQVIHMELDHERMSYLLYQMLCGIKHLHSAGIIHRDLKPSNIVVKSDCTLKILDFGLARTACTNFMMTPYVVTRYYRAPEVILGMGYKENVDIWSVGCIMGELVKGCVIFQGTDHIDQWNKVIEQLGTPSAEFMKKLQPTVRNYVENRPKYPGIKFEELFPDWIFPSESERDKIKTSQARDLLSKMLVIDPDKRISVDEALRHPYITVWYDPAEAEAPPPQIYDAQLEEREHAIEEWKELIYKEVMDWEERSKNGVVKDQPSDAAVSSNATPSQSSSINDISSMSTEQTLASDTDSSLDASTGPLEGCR
Description: as §1

MSSK1 = biological target: T11, MSSK1 (Homo sapiens, UniProt Q9UPE1)
T11 construct: gene SRPK3
Description: as §1

ERBB4 = ERBB4 (Homo sapiens, UniProt Q15303)
Description: as §1

PhK_gamma2 = biological target: T12, PhK_gamma2 (Homo sapiens, UniProt P15735)
T12 construct: gene PHKG2
Description: as §1

PKC_zeta = biological target: T13, PKC_zeta (Homo sapiens, UniProt Q05513)
T13 construct: gene PRKCZ
Description: as §1

## COc1cc2c(cn1)N(C)C(=O)[C@@H](NC(=O)c1nc3n(n1)[C@H](c1ccccc1)CC3)CC2 [GNE684, (S)-N-((S)-7-methoxy-1-methyl-2-oxo-2,3,4,5-tetrahydro-1H-pyrido[3,4-b]azepin-3-yl)-5-phenyl-6,7-dihydro-5H-pyrrolo[1,2-b][1,2,4]triazole-2-carboxamide]
CK1_alpha1
  inhibition at 10 µM: 3%
IKK-alpha
  inhibition at 10 µM: -3%
LIMK1
  inhibition at 10 µM: 8.5%
MST2
  inhibition at 10 µM: 5%
AKT2
  inhibition at 10 µM: 4.5%
HCK
  inhibition at 10 µM: 5%
WNK2
  inhibition at 10 µM: -8.5%
eEF-2K
  inhibition at 10 µM: 0%
CDK2/cyclinA
  inhibition at 10 µM: 6.5%
SRC
  inhibition at 10 µM: -1%
DCAMKL2
  inhibition at 10 µM: 2%
PRK1
  inhibition at 10 µM: 2.5%
ROCK1
  inhibition at 10 µM: 1%
PKC_alpha
  inhibition at 10 µM: 3%
TRKB
  inhibition at 10 µM: -5%
PRAK
  inhibition at 10 µM: 2.5%
IRAK1
  inhibition at 10 µM: -10.5%
HIPK4
  inhibition at 10 µM: 11.5%
JNK2
  inhibition at 10 µM: -4%
MSSK1
  inhibition at 10 µM: 2.5%
ERBB4
  inhibition at 10 µM: 4%
PhK_gamma2
  inhibition at 10 µM: 1%
PKC_zeta
  inhibition at 10 µM: -2.5%
